In one experiment the test system is VRE. Description: MIC against VRE. In kind it is cell-based, Enterococcus faecalis. How it is done: In a 12×75 mm borosilicate glass culture tube, 1 mL of cell suspension was added. Then, compound 7 was added to the cells, and the samples were mixed using a vortex mixer. […] The samples were incubated overnight at 37° C. on a rotary shaking incubator at 100 rpm.

In experiment [1] the test system is MRSA. In words: MIC of a compound of the invention and ampicillin, alone and in combination. In kind it is cell-based. An excerpt: Compounds of the invention can increase the potency of antibiotics. […] The ability of compounds of the invention to synergize with structurally and mechanistically unrelated antibiotics can be a result of the inhibition of bacterial efflux.

For experiment [2], the system named is U-87 MG (human brain gliobastoma). Description: Light-activated killing of cell lines (IC50 with/without light). In kind it is cell-based. How it is done: (§1) TABLE 15 depicts the IC50 of compounds in the presence or absence of light for human cell lines. The cell lines used were HeLa (human cervical adenocarcinoma), U-87 MG (human brain gliobastoma), MES-SA (human uterine sarcoma), MES-SA/D×5 (human uterine sarcoma grown in presence of doxorubicin), NCI-H441 (human lung papillary adenocarcinoma), A549 (human lung carcinoma), WI-38 (human embryonic lung normal), MCF7 (human breast adenocarcinoma), SW1088 (human brain astrocytoma), B16F10 (mouse skin melanoma), NIH-3T3 (mouse fibroblast), and Jurkat (human lymphoblastoma). “1-Sol” in TABLE 15 was generated by dissolving compound 1 and potassium hydroxide at a 1:1 ratio in a DMSO/water solution. The cells were irradiated with continuous white light using a LumaCare™ light source for 2 minutes at a distance of 6.5 cm from the cells.

For experiment [3], the system named is MES-SA/Dx5 (human uterine sarcoma grown in presence of doxorubicin). The experiment is described as above. In kind it is cell-based. As to conditions: Homo sapiens. On the procedure: as §1
Experiment [4] deals with MRSA. Description: Minimum bactericidal concentration (MBC) with and without white light. Particulars: Staphylococcus aureus, light or radiation study. In kind it is cell-based, S. aureus. On the procedure:
The bacterial media was inoculated with bacteria and incubated overnight. The bacterial cultures were diluted to 5×10^8 CFU/mL using a McFarland latex turbidity standard (0.5). Compound 1 was diluted with sterile DMSO, which was added to the cell suspension in glass culture tubes. The cells were then incubated for 30 minutes at 37° C. on a rotary shaking incubator at 150 rpm. 500 μL of the treated cell suspension was added to a well on a sterile ceramic drop plate. Non-coherent white light from a Lumacare™ LC-122 unit was used to irradiate the samples. The end of the light probe was placed 3 cm above the sample well, perpendicular to the surface of the sample, and light was applied for 2 minutes (15 seconds light, 15 seconds dark). 200 μL of the irradiated sample was transferred to a 96-well plastic microtiter plate and five ten-fold dilutions were made in the media. 10 μL of each dilution was dripped onto an agar media plate and was allowed to streak down the plate by tilting the plate down. The agar plates were incubated at 37° C. overnight and colony counts were performed to calculate the CFU/mL.
TABLE 14 details the MBC values of compounds 1-6 against MRSA with and without irradiation with white light. Irradiation involved treatment with a LumaCare™ light source at 3 cm from media for 1 min.

Experiment [5] can be described thus: MIC against MRSA isolates. In kind it is cell-based, S. aureus. Particulars: Staphylococcus aureus. How it is done: The MICs of S. aureus ATCC 33591, BAA-44, BAA-1707, BAA-1717, BAA-1720, BAA-1747, BAA-1754, BAA-1761, BAA-1763, BAA-1764, and BAA-1766 were measured using a cell concentration of about 5×10^5 colony forming units (CFU)/mL. In a 96-well microtiter plate, two-fold dilutions were made of each drug (starting with 100 μM) in 100 μL of a cell suspension in trypticase soy broth (TSB). The samples were incubated overnight at 37° C. on a rotary shaking incubator set at 100 revolutions per minute (rpm) and were visually inspected for turbidity. A 20% well-volume of 3-(4,5-dimethylthiazol-2-yl)-2,5-diphenyltetrazolium bromide (MTT reagent, 5 mg/mL) was added, and the samples were incubated for about 20 minutes. The MICs were determined as the lowest concentration at which full visual inhibition was observed by the unaided eye.

The test system of experiment [6] is S. aureus (ATCC 29213). Description: MIC against drug sensitive S. aureus. Particulars: Staphylococcus aureus. In kind it is cell-based.
Experiment [7] concerns S. aureus (ATCC 29213). In words: microbe, parasite or virus in culture. In kind it is cell-based. Particulars: for MIC: Staphylococcus aureus. How it is done:
Each mixture was incubated at 37° C. on a rotary shaking incubator for about 16 hours. MTT was then added to assess the viability of the cells (at 10% well volume). […] The cells were then streaked onto a TSA plate and incubated overnight at 37° C. These steps were repeated to reach a total of 30 exposures.

Setting [8] is: ATCC29213, ATCC 29213, read-out: S. aureus MIC.
The mark [9] stands for this setting: Enterococcus, TABLE 23, read-out: VRE MIC.
Setting [10] is: ATCC29213, read-out: Final MIC Apr. 16, 2015.
Setting [11] is: ATCC29213, read-out: Initial MIC Mar. 10, 2015.
[12] abbreviates: antibiotics, MRSA isolate ATCC 33591.
[13] abbreviates: antibiotics, MRSA isolate ATCC BAA-44.
Where [14] appears, read: antibiotics, MRSA isolate ATCC BAA-1707.
Setting [15] is: antibiotics, MRSA isolate ATCC BAA-1717.
Setting [16] is: antibiotics, MRSA isolate ATCC BAA-1720.
[17] abbreviates: antibiotics, MRSA isolate ATCC BAA-1747.
Where [18] appears, read: antibiotics, MRSA isolate ATCC BAA-1754.
The mark [19] stands for this setting: antibiotics, MRSA isolate ATCC BAA-1761.
The mark [20] stands for this setting: antibiotics, MRSA isolate ATCC BAA-1763.
Where [21] appears, read: antibiotics, MRSA isolate ATCC BAA-1764.
Where [22] appears, read: antibiotics, MRSA isolate ATCC BAA-1766.
Setting [23] is: read-out: MRSA MIC, MRSA (ATCC BAA-44), TABLE 21.

From US9834514B2, “Antibiotic sensitivity-restoring and photosensitive agents” (New Mexico Tech Research Foundation, priority 2015, dated 2017) come the findings set out here.

In brackets after ≈: the same amount, converted by molar mass. Like-named read-outs stand apart in the source and are kept apart here.

On to `CC1(C)S[C@@H]2[C@H](NC(=O)[C@H](N)c3ccccc3)C(=O)N2[C@H]1C(=O)O` [Ampicilin, ampicillin], for which the S/R result with VRE (TABLE 24) is reported as “S”. In the experiment on VRE (common antibiotics, TABLE 24), the MIC was in the range of 2 to 4 µg/mL. The “fold decrease in concentration in combination” value with MRSA [1] (combination versus alone) is listed as 8 fold. In addition, in the experiment on MRSA [1] (compound used in combination with ampicillin), the “concentration needed for full killing in combination” value is “about 572 μM”. Besides, the “mean inhibitory concentration (MIC), alone” value in the experiment with MRSA [1] (single agent) is given as “about 4579 μM”.

As for `Fc1ccc(/C=C/c2[nH]c3ccccc3c2/C=C/c2ccc(F)cc2)cc1` [Compound 4], the half-maximal inhibitory concentration (IC50) in experiment [2] (2 min, white light 2 minutes, read-out: Compound + light IC50) came out at 1.01 ± 0.16 µM; in experiment [2] (no light, read-out: Compound IC50) it was 42.6 ± 5.53 µM; in experiment [3] (MES-SA/Dx5, 2 min, MES-SA/Dx5 (no doxorubicin), white light 2 minutes, read-out: Compound + light IC50), 1.31 ± 0.51 µM; in experiment [3] (MES-SA/Dx5, 2 min, MES-SA/Dx5 + doxorubicin, white light 2 minutes, read-out: Compound + light IC50) it was 0.67 ± 0.01 µM; in experiment [3] (MES-SA/Dx5, MES-SA/Dx5 (no doxorubicin), no light, read-out: Compound IC50) it was 57.2 ± 10.3 µM; in experiment [3] (MES-SA/Dx5, MES-SA/Dx5 + doxorubicin, no light, read-out: Compound IC50), 40.9 ± 1.36 µM. Further, the MBC came out at 0.5 µM (≈ 0.179 µg/mL) in the experiment with MRSA [4] (1 min, LumaCare light source at 3 cm from media for 1 min, read-out: MBC with irradiation) and 100 µM (≈ 35.7 µg/mL) in the experiment with MRSA [4] (no irradiation, read-out: MBC in the dark).

For `CCn1cc(C(=O)O)c(=O)c2cc(F)c(N3CCNCC3)cc21` [Norfloxacin, reference compound], the MIC is 100 µg/mL (≈ 313 µM) in experiment [5] (MRSA (ATCC BAA-44), TABLE 21, read-out: MRSA MIC); 25 µg/mL (≈ 78.3 µM) in experiment [5] (antibiotics, MRSA isolate ATCC 33591, read-out: MIC); 100 µg/mL (≈ 313 µM) in experiment [5] (antibiotics, MRSA isolate ATCC BAA-44, read-out: MIC); under 3.1 µg/mL in experiment [5] (antibiotics, MRSA isolate ATCC BAA-1707, read-out: MIC); over 100 µg/mL in experiment [5] (antibiotics, MRSA isolate ATCC BAA-1720, read-out: MIC); 6.3 µg/mL (≈ 19.7 µM) in experiment [5] (antibiotics, MRSA isolate ATCC BAA-1747, read-out: MIC). Besides, the MIC in experiment [5] (antibiotics, MRSA isolate ATCC BAA-1754, read-out: MIC) was under 3.1 µg/mL; in experiment [5] (antibiotics, MRSA isolate ATCC BAA-1761, read-out: MIC), over 100 µg/mL; in experiment [5] (antibiotics, MRSA isolate ATCC BAA-1763, read-out: MIC), over 100 µg/mL; in experiment [5] (antibiotics, MRSA isolate ATCC BAA-1764, read-out: MIC), under 3.1 µg/mL; in experiment [5] (antibiotics, MRSA isolate ATCC BAA-1766, read-out: MIC) it was under 3.1 µg/mL; with S. aureus (ATCC 29213) [6] (setting [8]), 1.25 to 2.5 µg/mL (≈ 3.91 to 7.83 µM). Moreover, the MIC with VRE (setting [9]) was 2.5 µg/mL (≈ 7.83 µM); in the experiment on VRE (Enterococcus, common antibiotics, TABLE 24, read-out: MIC) it was 1 µg/mL (≈ 3.13 µM); in the experiment with S. aureus (ATCC 29213) [7] (setting [10]), over 16 µM; in the experiment on S. aureus (ATCC 29213) [7] (setting [11]), 2 µM (≈ 0.639 µg/mL). Also, the S/R entry in the experiment on VRE (TABLE 24) was “S”. Besides, the “Resistance Evolved” value with S. aureus (ATCC 29213) [7] was “Yes”.

Regarding `Cc1onc(-c2ccccc2)c1C(=O)N[C@@H]1C(=O)N2[C@@H]1SC(C)(C)[C@@H]2C(=O)O` [Oxacillin, reference compound], the MIC was over 100 µg/mL in experiment [5] (setting [12]); 400 µg/mL (≈ 996 µM) in experiment [5] (setting [13]); under 3.1 µg/mL in experiment [5] (setting [14]); 200 µg/mL (≈ 498 µM) in experiment [5] (setting [15]); over 100 µg/mL in experiment [5] (setting [16]); 6.3 µg/mL (≈ 15.7 µM) in experiment [5] (setting [17]). Further, the MIC was 50 µg/mL (≈ 125 µM) in experiment [5] (setting [18]); 6.3 µg/mL (≈ 15.7 µM) in experiment [5] (setting [19]); 50 µg/mL (≈ 125 µM) in experiment [5] (setting [20]); 25 µg/mL (≈ 62.3 µM) in experiment [5] (setting [21]); under 6.3 µg/mL in experiment [5] (setting [22]); 400 µg/mL (≈ 996 µM) in experiment [5] (setting [23]). Further, the MIC with S. aureus (ATCC 29213) [6] (setting [8]) is 0.5 µg/mL (≈ 1.25 µM); in the experiment with VRE (setting [9]), 20 to 40 µg/mL (≈ 49.8 to 99.6 µM); with S. aureus (ATCC 29213) [7] (setting [10]), over 8 µM; in the experiment on S. aureus (ATCC 29213) [7] (setting [11]), 0.25 µM (≈ 0.1 µg/mL). The “Resistance Evolved” value in the experiment with S. aureus (ATCC 29213) [7] was “Yes”.

For `CN[C@H](CC(C)C)C(=O)N[C@H]1C(=O)N[C@@H](CC(N)=O)C(=O)N[C@H]2C(=O)N[C@H]3C(=O)N[C@H](C(=O)N[C@H](C(=O)O)c4cc(O)cc(O)c4-c4cc3ccc4O)[C@H](O)c3ccc(c(Cl)c3)Oc3cc2cc(c3O[C@@H]2O[C@H](CO)[C@@H](O)[C@H](O)[C@H]2O[C@H]2C[C@](C)(N)[C@H](O)[C@H](C)O2)Oc2ccc(cc2Cl)[C@H]1O` [Vancomycin, reference compound], the MIC is under 3.1 µg/mL in experiment [5] (setting [12]); 3.1 µg/mL (≈ 2.14 µM) in experiment [5] (setting [13]); under 3.1 µg/mL in experiment [5] (setting [14]); under 1.6 µg/mL in experiment [5] (setting [15]); under 3.1 µg/mL in experiment [5] (setting [16]); under 3.1 µg/mL in experiment [5] (setting [17]). For the same compound, the MIC was under 3.1 µg/mL in experiment [5] (setting [18]); under 3.1 µg/mL in experiment [5] (setting [19]); under 3.1 µg/mL in experiment [5] (setting [20]); under 3.1 µg/mL in experiment [5] (setting [21]); under 3.1 µg/mL in experiment [5] (setting [22]); 3.12 µg/mL (≈ 2.15 µM) in experiment [5] (setting [23]). The MIC is 2 µg/mL (≈ 1.38 µM) with S. aureus (ATCC 29213) [6] (ATCC29213, read-out: S. aureus MIC); 64 µg/mL (≈ 44.2 µM) in the experiment with VRE (Enterococcus); over 40 µg/mL in the experiment on VRE (Enterococcus, read-out: VRE MIC). The S/R entry in the experiment with VRE (TABLE 24) is on record as “R”.
